The source of these data is patent US20240181049A1, “HARNESSING THE POWER OF MICROBIOTA AND METABOLITES FOR THE TREATMENT OF CANCER” (UTI LIMITED PARTNERSHIP, priority 2019, published 2024).

The test system of one assay is MC38 tumor cells. The assay can be described thus: MC38 tumors in GF mice: inosine with anti-CTLA-4 with or without CpG. The assay is classed as in vivo. The procedure:
FIG. 5A-5L: Inosine promotes Th1 activation and anti-tumor immunity. (a) Schematic overview of experimental setup to assess the effect of inosine on Th1 activation in vivo. (b, c) Representative dot plots and quantification (left and right panel respectively) of T-bet^+IFN-γ^+CD3ε^+ (b) CD8^+ or (c) CD4^+ T cells in the MLN. (d) Schematic overview of experimental setup to assess the effect of inosine on anti-tumor immunity. Upon palpable tumors, mice were treated with 100 μg anti-CTLA-4 i.p. (5 times every 72 hours) and in some groups 20 μg CpG i.p. (5 times every 72 hours). In addition, inosine (300 mg/KG/BW) or PBS was given daily orally (O), through gavage or systemically (S) through i.p. injection. (e) Tumor weight and quantification of IFN-γ^+ cells amongst (f) CD4^+ or (g) CD8^+ cells are shown. (h). Schematic overview to assess the requirement of A2AR signaling for inosine-induced anti-tumor immunity. 1×10^6 MC38 cells (s.c.) and WT or A2AR-deficient 1×10^7 T cells (i.v. 6×10^6 CD4^+ and 4×10^6 CD8^+ cells) were injected. Upon palpable tumors, mice were treated with 100 μg anti-CTLA-4, 20 μg CpG (4 times every 72 hours, both i.p.) and inosine (daily, 300 mg/KG/BW, through gavage). (i) Pictures of tumors are shown at day 20. scale bars: 1 cm. (j) Tumor weight and quantification of IFN-γ^+ in (k) CD8^+ or (l) CD4^+ cells in the tumor are shown. Data are mean±SEM and pooled from two individual experiments (a-l) 10-11 mice/group. *, P<0.05; **, P<0.01; ***, P<0.001.
FIG. 18A-18H: Classical dendritic cells are required for bacteria dependent effect of ICB. (a) IL-12p70 expression in classical dendritic cells (MHCII^+CD11c^+B220^−CD64^−) and macrophages (MHCII^+CD11c^+B220^−, CD64^+) (b) Quantification of IL-12p70 expression in macrophages and cDCs. Classical dendritic cells were depleted with diphtheria toxin (DT) in bone marrow chimeric mice after MC38 tumor challenge, followed by anti-CTLA-4 treatment (see FIG. 4h for experimental setup). Quantification of splenic (c) IFN-γ^+CD8^+ or (d) Ki-67^+ CD8^+ T cells. (e and f) same as (c and d) but for CD4^+ T cells. (g and h) 1×10^6 MC38 cells (s.c.) were injected in GF mice. Seven days later upon palpable tumors, mice were treated with 100 μg anti-CTLA-4 i.p. (5 times every 72 hours) and in some groups 20 μg CpG i.p. (5 times every 72 hours). In addition, inosine (300 mg/KG/BW) or PBS was given daily orally (O), through gavage or systemically (S) through i.p. injection. Quantification of Ki-67^+ cells is shown. […]
To evaluate the effect of inosine on Th1 activation, mice received 30 μg CpG, […] EndoFit Ovalbumin (both Invivogen) and 2 μg OVA323-339 (Sigma) i.p. and 24 hours later mice received 300 mg/kg/BW inosine or PBS as a control through i.p. injection. T cell differentiation was assessed 48 hours later. […]

The next assay concerns MC38-OVA cells. The assay can be described thus: T cell-mediated killing of inosine-pretreated MC38-OVA cells. The assay is classed as cell-based. The following applies: pretreatment of tumor cells prior to co-culture with activated tumor-specific T cells. As for the experimental part: FIG. 17A-17B. […] (a) MC38 tumor cells were treated with the indicated doses of inosine in vitro for 72 hours. Cell death and survival was assessed through flow cytometry. (b) MC38 tumor cells expressing full length ovalbumin (MC38-OVA) were treated with the indicated doses of inosine in vitro for 72 hours. In parallel, OVA-specific naïve CD4 and CD8 T cells from spleens of OT-II and OT-I mice, respectively, were activated with anti-CD3/anti-CD28 beads and rmIL-2 (20 IU/ml) for 72 hours. Inosine was then washed away from conditioned MC38-OVA cells and fresh medium together with activated T cells were added (100,000 MC38-OVA cells+25,000 CD4 cells+25,000 CD8 cells). 72 hours later, cell death and survival of MC38-OVA cells was assessed through flow cytometry. Grey and black dash-dotted lines indicate MC38-OVA cell viability and death when co-cultured with naïve OVA-specific CD4 and CD8 T cells. Data are mean±SEM and pooled from two individual experiments. n=6 biological replicates/condition. #, & P<0.05, **, P<0.01; (**=0.0001 vs 10 mM, #0.001 vs 10 mM and & 1 vs 10 mM)

[1] abbreviates: with anti-CTLA-4, in the absence of CpG.
Setting [2] is: with anti-CTLA-4 and CpG, oral or systemic, vs PBS.

Regarding `OC[C@H]1O[C@@H](n2cnc3c(O)ncnc32)[C@H](O)[C@@H]1O` [inosine], in the assay with MC38 tumor cells (setting [1]), the anti-tumor immunity entry is “reduced anti-tumor immunity” and the tumor weight result was “increased tumor weight”. Besides, in the assay on MC38 tumor cells (setting [2]), the anti-tumor immunity result was “increased anti-tumor immunity” and the tumor weight entry is given as “reduction of tumor weight”. Also, the “T cell-mediated killing of tumor cells” value with MC38-OVA cells is on record as “did not promote or inhibit T cell-mediated killing of tumor cells”.
